How the values were obtained:
Test in all cases: NCI60 one-dose screen
Type in all cases: cell-based
A549/ATCC = details: Homo sapiens, read-out: Growth percent
Method: (§1) The screening results are presented in the Supplementary Materials (Table S1), where the cytotoxicity was determined for the 10 µM concentration. […] The negative numbers indicate significant decreases in the cell number. […] Compared to the reference chrysin (2), all phosphonium hybrids (3a–h) had significant antiproliferative activities. […] At the same time, it should be noted that more than 60% average reduction was also obtained in the case of the other examined conjugates (3a–h).
(§2) A detailed description of the NCI screening procedures, including the one-dose and five-dose tests, can be found in the Supplementary Materials, on the website of NCI [39], and in our previous work.
(§3) A detailed description of the NCI screening procedures can also be found on the website of NCI [39], and in our […]
(§4) All candidates were examined at first at a single high dose (10 μM) in the full NCI60 cell panel. The value reported for the one-dose test is growth relative to the no-drug control and relative to the time zero number of cells. This made possible the disclosure of both growth inhibition (numbers between 0 and 100) and lethality (numbers less than 0). For example, a value of 100 means no growth inhibition. A value of 20 would mean 80% growth inhibition. A value of 0 means no net growth over the course of the analysis. A value of −20 would mean 20% lethality. A value of −100 means all cells are dead. […]
(§5) concentration levels. The human tumor cell lines of the cancer screening panel were grown in RPMI 1640 medium containing 5% fetal bovine serum and 2 mM l-glutamine. Characteristically, cells were injected in 96-well microtiter plates in 0.1 mL at plating densities ranging from 5000 to 40,000 cells/well, depending on the doubling time of individual cell lines. After cell inoculation, the microtiter plates were incubated at 37 °C, 5% carbon dioxide, 95% air, and 100% relative humidity for 24 hours before the addition of tested compounds. After 24 hours, 2 plates of each cell line were fixed in situ with Cl3COOH (TCA), to represent a measurement of the cell population for each cell line at the time of drug addition (tz). Tested compounds were solubilized in DMSO at 400-fold the desired final maximum test concentration and stored frozen before application. In the course of the drug addition, an aliquot of frozen concentrate was thawed and diluted to twice the desired final maximum test concentration with a complete medium containing 50 μg mL−1 gentamicin. Additional four, 10-fold or ½ log serial dilutions were produced to furnish a total of five drug concentrations plus control. Aliquots of 0.1 mL of these different drug dilutions were added to the appropriate microtiter wells already containing 0.1 mL of medium, resulting in the required final drug concentrations.
(§6) Following drug addition, the plates were incubated at 37 °C, 5% carbon dioxide, 95% air, and 100% relative humidity for an additional 48 hours. For adherent cells, the test was finished by the addition of cold Cl3COOH. Cells were fixed in situ by the addition of 50 μL of cold 50% (w/v) Cl3COOH, and incubated at 4 °C for 1 hour. The supernatant was discarded, and the plates were washed with H2O (5×) and dried in air. Sulforhodamine B (SRB) solution (0.1 mL) at 0.4% (w/v) in 1% CH3COOH was added to each well, and plates were incubated at RT for 10 min. After staining, the unbound dye was removed by washing five times with 1% CH3COOH, and the plates were dried in the air. The bound stain is afterward solubilized with a 10 mM trizma base, and the absorbance is read on an automated plate reader at λ = 515 nm. Utilizing the seven absorbance measurements [time zero (tz), control growth (c), and test growth in the presence of the drug at the five concentration levels (ti)], the percentage growth was determined at each of the drug concentration levels. Growth inhibition (%) was calculated as:
(§7) [(ti − tz)/(c − tz)] × 100, for concentrations where ti ≥ tz (1) […]

CCRF-CEM = details: Homo sapiens, read-out: Growth percent
Method: as §1, §2, §3, §4, §5, §6, §7

DU-145 = details: Homo sapiens; DU-145, 10 μM; read-out: Growth percent
Method: as §1, §2, §3, §4, §5, §6, §7

EKVX = details: Homo sapiens, read-out: Growth percent
Method: as §1, §2, §3, §4, §5, §6, §7

HCC-2998 = details: Homo sapiens; HCC-2998, 10 μM; read-out: Growth percent
Method: as §1, §2, §3, §4, §5, §6, §7

HCT-116 = details: Homo sapiens; HCT-116, 10 μM; read-out: Growth percent
Method: as §1, §2, §3, §4, §5, §6, §7

HL-60(TB) = details: Homo sapiens, read-out: Growth percent
Method: as §1, §2, §3, §4, §5, §6, §7

HS 578T = details: Homo sapiens, read-out: Growth percent
Method: as §1, §2, §3, §4, §5, §6, §7

LOX IMVI = details: Homo sapiens, read-out: Growth percent
Method: as §1, §2, §3, §4, §5, §6, §7

MDA-MB-231/ATCC = details: Homo sapiens, read-out: Growth percent
Method: as §1, §2, §3, §4, §5, §6, §7

MDA-MB-435 = details: Homo sapiens; MDA-MB-435, 10 μM; read-out: Growth percent
Method: as §1, §2, §3, §4, §5, §6, §7

NCI-H322M = details: Homo sapiens, read-out: Growth percent
Method: as §1, §2, §3, §4, §5, §6, §7

NCI/ADR-RES = details: Homo sapiens, read-out: Growth percent
Method: as §1, §2, §3, §4, §5, §6, §7

OVCAR-5 = details: Homo sapiens; OVCAR-5, 10 μM; read-out: Growth percent
Method: as §1, §2, §3, §4, §5, §6, §7

SF-268 = details: Homo sapiens; SF-268, 10 μM; read-out: Growth percent
Method: as §1, §2, §3, §4, §5, §6, §7

SF-295 = details: Homo sapiens; SF-295, 10 μM; read-out: Growth percent
Method: as §1, §2, §3, §4, §5, §6, §7

SK-MEL-2 = details: Homo sapiens; SK-MEL-2, 10 μM; read-out: Growth percent
Method: as §1, §2, §3, §4, §5, §6, §7

SN12C = details: Homo sapiens, read-out: Growth percent
Method: as §1, §2, §3, §4, §5, §6, §7

SNB-19 = details: Homo sapiens; SNB-19, 10 μM; read-out: Growth percent
Method: as §1, §2, §3, §4, §5, §6, §7

SNB-75 = details: Homo sapiens; SNB-75, 10 μM; read-out: Growth percent
Method: as §1, §2, §3, §4, §5, §6, §7

SW-620 = details: Homo sapiens; SW-620, 10 μM; read-out: Growth percent
Method: as §1, §2, §3, §4, §5, §6, §7

RXF 393 = details: Homo sapiens; RXF 393, 10 μM; read-out: Growth percent
Method: as §1, §2, §3, §4, §5, §6, §7

| SMILES | activity at 10 µM (A549/ATCC) | activity at 10 µM (CCRF-CEM) | activity at 10 µM (DU-145) | activity at 10 µM (EKVX) | activity at 10 µM (HCC-2998) | activity at 10 µM (HCT-116) | activity at 10 µM (HL-60(TB)) | activity at 10 µM (HS 578T) | activity at 10 µM (LOX IMVI) | activity at 10 µM (MDA-MB-231/ATCC) | activity at 10 µM (MDA-MB-435) | activity at 10 µM (NCI-H322M) | activity at 10 µM (NCI/ADR-RES) | activity at 10 µM (SF-268) | activity at 10 µM (SF-295) | activity at 10 µM (SK-MEL-2) | activity at 10 µM (SN12C) | activity at 10 µM (SNB-19) | activity at 10 µM (SNB-75) | activity at 10 µM (SW-620) | further results |
| --- | --- | --- | --- | --- | --- | --- | --- | --- | --- | --- | --- | --- | --- | --- | --- | --- | --- | --- | --- | --- | --- |
| O=c1cc(-c2ccccc2)oc2cc(OCCCC[P+](c3ccccc3)(c3ccccc3)c3ccccc3)cc(O)c12 [3a] | -56% | -75.9% | -94.8% | -97.6% | -93.1% | -58.1% | -51.5% | -35.2% | -90.1% | -32.2% | -67.5% | -100% | -68.3% | -59% | -96% | -94.1% | -49.5% | -44.5% | -80.7% | -81.7% | activity at 10 µM (OVCAR-5): -97.7% |
| Cc1ccc([P+](CCCCOc2cc(O)c3c(=O)cc(-c4ccccc4)oc3c2)(c2ccc(C)cc2)c2ccc(C)cc2)cc1 [3b] | -49.5% | -70.5% | -85.9% | -88.3% | -88.7% | 1.29% | -60.4% | -52.2% | -91.2% | -90.7% | -88.2% | -79.5% | -65.7% | -61.3% | -91.3% | -76.9% | -84.4% | -96.1% | -78.4% | -68.5% | activity at 10 µM (OVCAR-5): -80.3%; activity at 10 µM (RXF 393): -74.8% |
| COc1ccc([P+](CCCCOc2cc(O)c3c(=O)cc(-c4ccccc4)oc3c2)(c2ccc(OC)cc2)c2ccc(OC)cc2)cc1 [3c] | -91.2% | -71.7% | -90.7% | -70.9% | -72.9% | -95.5% | -31.2% | -62.7% | -78.8% | -72.1% | -89.6% | -45.1% | -13.2% | -38.3% | -73.8% | -88.6% | -59% | -78.9% | -51.1% | -34.8% | activity at 10 µM (OVCAR-5): -59.3%; activity at 10 µM (RXF 393): -74.4% |
| O=c1cc(-c2ccccc2)oc2cc(OCCCC[P+](c3ccc(F)cc3)(c3ccc(F)cc3)c3ccc(F)cc3)cc(O)c12 [3d] | -41.1% | -55.9% | -79.2% | -83.9% | -89% | -66.6% | -46.9% | -54.5% | -93.7% | -95% | -90.8% | -88.3% | 65% | -71.6% | -74% | -77.3% | -82.1% | -97.4% | -78% | -67.5% | activity at 10 µM (OVCAR-5): -89.9%; activity at 10 µM (RXF 393): -84% |
| O=c1cc(-c2ccccc2)oc2cc(OCCCC[P+](C3CCCCC3)(C3CCCCC3)C3CCCCC3)cc(O)c12 [3e] | -95.3% | -66.7% | -96.1% | -83.5% | -84.7% | -62% | -20.6% | -62.1% | -90.5% | -81.6% | -93.6% | -85.2% | -20.8% | -67.5% | -87% | -91.9% | -57% | -87.6% | -80.5% | -76.4% | activity at 10 µM (OVCAR-5): -60.5%; activity at 10 µM (RXF 393): -80% |
| COc1c(C)cc([P+](CCCCOc2cc(O)c3c(=O)cc(-c4ccccc4)oc3c2)(c2cc(C)c(OC)c(C)c2)c2cc(C)c(OC)c(C)c2)cc1C [3f] | -66.1% | -32.6% | -92.7% | -76.5% | -73.5% | -47.6% | -27.7% | -57.7% | -68.7% | -74.8% | -81.9% | -62.2% | -66.8% | -66.5% | -63.6% | -77.6% | -77.4% | -76.8% | -71% | -62.4% | activity at 10 µM (OVCAR-5): -87.8%; activity at 10 µM (RXF 393): -66.9% |
| Cc1ccccc1[P+](CCCCOc1cc(O)c2c(=O)cc(-c3ccccc3)oc2c1)(c1ccccc1C)c1ccccc1C [3g] | -94.1% | -96.5% | -97.1% | -98.4% | -98.2% | -94.5% | -97.4% | -98.3% | -97.5% | – | -98.3% | -98.2% | -97.9% | -97.9% | -98.7% | -98.5% | -97% | -97.4% | -99% | -96.4% | activity at 10 µM (RXF 393): -98.7% |
